For test [1], the system named is serum cholesterol. As to the kind of experiment: Antihyperlipidemic activity: serum cholesterol levels in male CF1 mice. Type of test: in vivo. The conditions noted are these: for Percent Inhibition, Serum Cholesterol, Day 9: Day 9, 8 mg/kg intraperitoneally; for Percent Inhibition, Serum Cholesterol, Day 16: Day 16, 8 mg/kg intraperitoneally. The protocol: (§1) Compounds to be tested were suspended in 1% aqueous carboxymethylcellulose,homogenized and administered to male CF1 mice (25 g) intraperitoneally for 16d. On days 9 and 16, blood was obtained by tail vein bleeding, and the serum was separated by centrifugation for three minutes. The serum cholesterol levels were determined by a modification of the Liebermann-Burchard reaction in accordance with known techniques. See A. Ness, et al., Clin. Chim. Acta 10, 229 (1964). Serum triglyceride levels were determined with a commercial kit, the Fisher Hycel Triglyceride Test Kit, for a different group of animals bled on day 16.

Test [2] relates to serum triglyceride. As to the kind of experiment: Antihyperlipidemic activity: serum triglyceride levels in male CF1 mice. Conditions: 8 mg/kg intraperitoneally. Type of test: in vivo. The protocol:
as §1

Test [3] deals with inflammatory response (carrageenan, hind foot). As to the kind of experiment: Anti-inflammatory activity: carrageenan-induced paw inflammation in CF1 male mice. Format: in vivo. The conditions noted are these: 8 mg/kg intraperitoneally 3 hours and 30 minutes prior to carrageenan; feet excised after 3 hours. The protocol: Anti-Inflammatory Activity CF1 male mice (~25 g) were administered test drugs at 5-40 mg/kg in 0.05% Tween 80-H2 O intraperitoneally 3 hours prior to and 30 minutes prior to the injection of 0.2 ml of 1% carrageenan in 0.9% saline into the plantar surface of the right hind foot. Saline was injected into the left hind foot, which serves as a base line. After 3 hours, both feet were excised at the tibiotarsal (ankle) joint according to standard procedures. See C. Winter et al., Proc. Soc. Expt. Biol Med. 544, 111 (1962); A. Roszkawski et al., J. Pharm. Exp. Ther. 179, 114 (1971). Control mice afforded a 78±3 mg increase in paw weight.

The test system of test [4] is KB epidermoid oral nesopharnyx. Description: Cytotoxic activity, KB epidermoid oral nesopharnyx. Type of test: cell-based. The conditions noted are these: cell density estimated when controls converged. The procedure: The cytotoxic activity of oligonucleoside boranophosphates of the present invention was tested on the following neoplastic cell lines:
6. KB epidermoid oral nesopharnyx. R. Geran, supra; H. Eagle, Proc. Soc. Expt. Biol. 89, 362 (1955) (grown in EMEM+5% calf serum).
The cytotoxic screens were conducted according to NIH protocols, see E. Huang et al., J. Pharm. Sci. 61, 108 (1972), with 10^4 cells, growth medium, antibiotics and drugs from 0.5 to 100 μg/ml final concentration. For the L1210, Hela-S, amd Tmolt, (i.e. the suspended cells), the incubations were conducted in sterile test tubes in a final volume of 1 ml for 72 hr at 37° C. in a CO2 incubator. The cells on the third day were still in log growth phase. The number of cells/ml are determined using trypan blue exclusion and a hemocytometer. See, e.g., R. Geran, supra. For solid tumors 1×10^4 cells are plated with 1 ml of medium+ antibiotics and the other components of growth. When the controls have converged (≈95%) then the density of the cells is estimated and the ED50 values calculated.

“thymidylyl[3'-5']-(3'-acetylthymidylyl) (borane)phosphonate methyl ester [Compound A]”: in test [1], the “Percent Inhibition, Serum Cholesterol, Day 9” value is reported as 38% and the “Percent Inhibition, Serum Cholesterol, Day 16” value turned out to be 46%. Moreover, the “Percent Inhibition, Serum Triglyceride, Day 16” value in test [2] came out at 12%. The “Percent Inhibition of the inflammatory response” value in test [3] came to 37%. In addition, the ED50, KB in test [4] was 3.51 µg/mL.
Regarding “thymidylyl[3'-5']thymidylyl[3'-5'](3'-acetylthymidylyl) boranephosphonate dimethyl ester [Compound T]”, in test [1], the “Percent Inhibition, Serum Cholesterol, Day 9” value is given as 33% and the “Percent Inhibition, Serum Cholesterol, Day 16” value worked out at 32%. The “Percent Inhibition, Serum Triglyceride, Day 16” value in test [2] was found to be 18%. In addition, the “Percent Inhibition of the inflammatory response” value in test [3] is 40%. The ED50, KB in test [4] is 0.61 µg/mL.

Values taken from US5455233A, “Oligoribonucleoside and oligodeoxyribonucleoside boranophosphates” (University of North Carolina, priority 1992, dated 1995).
